According to PubChem BioAssay AID330 (DTP/NCI, 2004):
Where “and” joins values, the source holds several entries; their conditions need not be identical. Equal values may be shown once. Toxic doses and inconclusive results are not listed.

Tested on: P388 leukemia ip, CD2F1 mice, survival T/C
Test: NCI In Vivo Anticancer Drug Screen. Data for tumor model P388 Leukemia (intraperitoneal) in CD2F1 (CDF1) mice
Conditions: endpoint: median survival time, higher = longer survival
Procedure, shortened: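 Mice carrying the transplanted tumor received test compound or vehicle. Survival was recorded in each group, and the value is the treated-group measurement divided by that of the vehicle-treated control group.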

[1] = dose: 50.0 mg/kg/injection, schedule: Q01DX005 (ip), vehicle: Klucel (hydroxypropylcellulose) (HPC)
[2] = dose: 100.0 mg/kg/injection, schedule: Q01DX005 (ip), vehicle: Klucel (hydroxypropylcellulose) (HPC)
[3] = dose: 200.0 mg/kg/injection, schedule: Q01DX005 (ip), vehicle: Klucel (hydroxypropylcellulose) (HPC)
[4] = dose: 25.0 mg/kg/injection, schedule: Q01DX009 (ip), vehicle: saline
[5] = dose: 50.0 mg/kg/injection, schedule: Q04DX003 (ip), vehicle: saline with Tween-80
[6] = dose: 100.0 mg/kg/injection, schedule: Q04DX003 (ip), vehicle: saline with Tween-80
[7] = dose: 60.0 mg/kg/injection, schedule: Q01DX005 (ip), vehicle: saline with Tween-80
[8] = dose: 120.0 mg/kg/injection, schedule: Q01DX005 (ip), vehicle: saline with Tween-80
[9] = dose: 240.0 mg/kg/injection, schedule: Q01DX005 (ip), vehicle: saline with Tween-80
[10] = dose: 50.0 mg/kg/injection, schedule: Q01DX009 (ip), vehicle: Klucel (hydroxypropylcellulose) (HPC)
[11] = dose: 100.0 mg/kg/injection, schedule: Q01DX009 (ip), vehicle: Klucel (hydroxypropylcellulose) (HPC)
[12] = dose: 200.0 mg/kg/injection, schedule: Q01DX009 (ip), vehicle: Klucel (hydroxypropylcellulose) (HPC)

In the case of `CCN(CC)CCCNc1nccc2c(C)c3[nH]c4ccncc4c3cc12`, the T/C (dose: 0.5 mg/kg/injection, schedule: Q04DX003 (ip), vehicle: other) is reported as 162 % of control, the T/C (dose: 0.5 mg/kg/injection, schedule: Q04DX003 (iv), vehicle: other) is reported as 110 % of control and the T/C (dose: 0.58 mg/kg/injection, schedule: Q04DX003 (ip), vehicle: other) is reported as 155 % of control. For the same molecule, the T/C (dose: 0.97 mg/kg/injection, schedule: Q04DX003 (ip), vehicle: other) was 156 % of control, the T/C (dose: 1.0 mg/kg/injection, schedule: Q04DX003 (iv), vehicle: other) was 110 % of control and the T/C (dose: 1.62 mg/kg/injection, schedule: Q04DX003 (ip), vehicle: other) was 182 % of control. The T/C (dose: 2.0 mg/kg/injection, schedule: Q04DX003 (iv), vehicle: other) was 112 % of control, the T/C (dose: 2.7 mg/kg/injection, schedule: Q04DX003 (ip), vehicle: other) was 189 % of control and the T/C (dose: 3.24 mg/kg/injection, schedule: Q04DX002 (ip), vehicle: other) was 170 % of control and 175 % of control. The T/C (dose: 3.89 mg/kg/injection, schedule: Q04DX002 (ip), vehicle: other) was 179 % of control, the T/C (dose: 4.0 mg/kg/injection, schedule: Q04DX003 (iv), vehicle: other) was 122 % of control and the T/C (dose: 4.5 mg/kg/injection, schedule: Q04DX003 (ip), vehicle: other) was 196 % of control. The T/C (dose: 5.4 mg/kg/injection, schedule: Q04DX002 (ip), vehicle: other) was 168 % of control and 185 % of control, the T/C (dose: 6.48 mg/kg/injection, schedule: Q04DX002 (ip), vehicle: other) was 213 % of control and the T/C (dose: 7.5 mg/kg/injection, schedule: Q04DX003 (ip), vehicle: other) was 182 % of control. The T/C (dose: 9.0 mg/kg/injection, schedule: Q04DX002 (ip), vehicle: other) was 200 % of control and 207 % of control, the T/C (dose: 10.8 mg/kg/injection, schedule: Q04DX002 (ip), vehicle: other) was 194 % of control and the T/C (dose: 15.0 mg/kg/injection, schedule: Q04DX002 (ip), vehicle: other) was 200 % of control and 217 % of control. For the same molecule, the T/C (dose: 18.0 mg/kg/injection, schedule: Q04DX002 (ip), vehicle: other) was 215 % of control.

For `CCCCOC(=O)c1c2nc3c(C(=O)OCCCC)ccc(C)c3oc-2c(C)c(=O)c1NC(C)=O`, the T/C (dose: 100.0 mg/kg/injection, schedule: Q04DX003 (ip), vehicle: Klucel (hydroxypropylcellulose) (HPC)) was 87 % of control, the T/C (dose: 200.0 mg/kg/injection, schedule: Q04DX003 (ip), vehicle: Klucel (hydroxypropylcellulose) (HPC)) was 90 % of control and the T/C (dose: 400.0 mg/kg/injection, schedule: Q04DX003 (ip), vehicle: Klucel (hydroxypropylcellulose) (HPC)) was 89 % of control.

With `Cc1ccc(S(=O)(=O)C(=S)SCc2ccccc2)cc1` the T/C [1] was 106 % of control, the T/C [2] was 105 % of control and the T/C [3] was 96 % of control.

`CC([NH-])C(=O)O.[Cu+2].[NH-]C(Cc1cnc[nH]1)C(=O)O` (centres undefined) was tested, and the T/C [4] was 97 % of control.

With `O=C1NCC(c2ccccc2)N1` (centres undefined) the T/C (dose: 50.0 mg/kg/injection, schedule: Q01DX009 (ip), vehicle: saline with Tween-80) was 119 % of control, the T/C (dose: 100.0 mg/kg/injection, schedule: Q01DX009 (ip), vehicle: saline with Tween-80) was 100 % of control and the T/C (dose: 200.0 mg/kg/injection, schedule: Q01DX009 (ip), vehicle: saline with Tween-80) was 106 % of control.

For `CN(C)C(=C1C=CC=C/C1=N/S(=O)(=O)c1ccccc1)N(C)C`, the T/C (dose: 100.0 mg/kg/injection, schedule: Q04DX003 (ip), vehicle: saline) was 103 % of control, the T/C (dose: 200.0 mg/kg/injection, schedule: Q04DX003 (ip), vehicle: saline) was 108 % of control and the T/C (dose: 400.0 mg/kg/injection, schedule: Q04DX003 (ip), vehicle: saline) was 105 % of control.

In the case of `Nc1cc(=O)c2n[nH]nc2[nH]1`, the T/C [5] is reported as 100 % of control, the T/C [6] is reported as 108 % of control and the T/C (dose: 200.0 mg/kg/injection, schedule: Q04DX003 (ip), vehicle: saline with Tween-80) is reported as 108 % of control. The T/C (dose: 400.0 mg/kg/injection, schedule: Q04DX003 (ip), vehicle: saline with Tween-80) was 107 % of control.

In the case of `O=C1Nc2ccccc2S/C1=C/c1ccccc1`, the T/C (dose: 50.0 mg/kg/injection, schedule: Q01DX009 (ip), vehicle: gum acacia) is reported as 109 % of control, the T/C (dose: 100.0 mg/kg/injection, schedule: Q01DX009 (ip), vehicle: gum acacia) is reported as 113 % of control and the T/C (dose: 200.0 mg/kg/injection, schedule: Q01DX009 (ip), vehicle: gum acacia) is reported as 97 % of control.

For `CC1=CC2C3C(=O)NC(=O)C3C1C1C3C(=O)NC(=O)C3C21` (centres undefined), the T/C [7] was 98 % of control, the T/C [8] was 104 % of control and the T/C [9] was 95 % of control.

With `CSc1nc2c(nnn2C2OC(CO)C(O)C(O)C2O)c(=O)[nH]1` (centres undefined) the T/C [7] was 100 % of control, the T/C [8] was 97 % of control and the T/C [9] was 102 % of control.

`Clc1ccc2nc(CI)c(CI)nc2c1` was tested, and the T/C (dose: 5.5 mg/kg/injection, schedule: Q01DX009 (ip), vehicle: saline with Tween-80) was 104 % of control, the T/C (dose: 8.3 mg/kg/injection, schedule: Q01DX009 (ip), vehicle: saline with Tween-80) was 95 % of control and the T/C (dose: 12.5 mg/kg/injection, schedule: Q01DX009 (ip), vehicle: saline with Tween-80) was 100 % of control. The T/C (dose: 18.7 mg/kg/injection, schedule: Q01DX009 (ip), vehicle: saline with Tween-80) was 118 % of control, the T/C (dose: 25.0 mg/kg/injection, schedule: Q04DX003 (ip), vehicle: saline with Tween-80) was 118 % of control and the T/C [5] was 118 % of control. For the same molecule, the T/C [6] was 122 % of control.

`CC(C)(C)OC(=O)N/N=C\c1ccnc2ccccc12` was tested, and the T/C (dose: 25.0 mg/kg/injection, schedule: Q01DX005 (ip), vehicle: Klucel (hydroxypropylcellulose) (HPC)) was 93 % of control, the T/C [1] was 96 % of control and the T/C [2] was 93 % of control.

For `O=c1ccc2[n+]([O-])c3ccc(O)cc3oc-2c1`, the T/C (dose: 50.0 mg/kg/injection, schedule: Q01DX005 (ip), vehicle: saline with Tween-80) was 95 % of control and the T/C (dose: 100.0 mg/kg/injection, schedule: Q01DX005 (ip), vehicle: saline with Tween-80) was 100 % of control.

`O=CC1N=C1c1ccccc1` (centres undefined) was tested, and the T/C (dose: 100.0 mg/kg/injection, schedule: Q01DX001 (ip), vehicle: Klucel (hydroxypropylcellulose) (HPC)) was 88 % of control and the T/C (dose: 200.0 mg/kg/injection, schedule: Q01DX001 (ip), vehicle: Klucel (hydroxypropylcellulose) (HPC)) was 90 % of control.

In the case of `CCC/C(=N\O)S(=O)(=O)c1ccc(NN=O)nc1`, the T/C (dose: 3.12 mg/kg/injection, schedule: Q01DX009 (ip), vehicle: saline) is reported as 107 % of control, the T/C (dose: 6.25 mg/kg/injection, schedule: Q01DX009 (ip), vehicle: saline) is reported as 108 % of control and 110 % of control and the T/C (dose: 12.5 mg/kg/injection, schedule: Q01DX009 (ip), vehicle: saline) is reported as 116 % of control and 118 % of control. The T/C [4] was 150 % of control.

`COc1cccc2c1C(=O)c1c(O)c3c(c(O)c1C2=O)CC(NO)CC3OC1CC(NC(=O)C(F)(F)F)C(O)C(C)O1` (centres undefined) was tested, and the T/C (dose: 1.56 mg/kg/injection, schedule: Q01DX009 (ip), vehicle: other) was 103 % of control and 101 % of control, the T/C (dose: 3.13 mg/kg/injection, schedule: Q01DX009 (ip), vehicle: other) was 104 % of control and 106 % of control and the T/C (dose: 6.25 mg/kg/injection, schedule: Q01DX009 (ip), vehicle: other) was 108 % of control and 110 % of control. For the same molecule, the T/C (dose: 12.5 mg/kg/injection, schedule: Q01DX009 (ip), vehicle: other) was 113 % of control and the T/C (dose: 25.0 mg/kg/injection, schedule: Q01DX009 (ip), vehicle: other) was 116 % of control and 107 % of control.

In the case of `Cc1ccc(S(=O)(=O)C(Cl)(SOCc2ccccc2)Sc2ccccc2)cc1` (centres undefined), the T/C [10] is reported as 109 % of control, the T/C [11] is reported as 100 % of control and the T/C [12] is reported as 114 % of control.

`CCCC(C)N(CC(=O)Nc1ccc(S(N)(=O)=O)cc1)C(C)=O` (centres undefined) was tested, and the T/C [10] was 100 % of control, the T/C [11] was 107 % of control and the T/C [12] was 109 % of control.

For `Cc1nc2c(cnn2C)c(=O)n1-c1ccccc1Cl`, the T/C [1] was 103 % of control, the T/C [2] was 95 % of control and the T/C [3] was 98 % of control.

With `COc1ccc2[nH]c3c(c2c1)C(=O)c1ccncc1C3=O` the T/C (dose: 37.5 mg/kg/injection, schedule: Q04DX002 (ip), vehicle: Klucel (hydroxypropylcellulose) (HPC)) was 87 % of control and the T/C (dose: 75.0 mg/kg/injection, schedule: Q04DX002 (ip), vehicle: Klucel (hydroxypropylcellulose) (HPC)) was 91 % of control.
